Test results published in patent publication US20150141381A1, “TETRACYCLINE COMPOUNDS HAVING TARGET THERAPEUTIC ACTIVITIES” (Paratek Pharmaceuticals, Inc., priority 2001, published 2015).
Read-outs that look alike come from different tables or passages of the source.

How the values were obtained:
E. coli mL308 225 = assay: In Vitro Anti-Bacterial Activity Assay (MIC), gram negative; format: cell-based; details: for MIC: Escherichia coli, ML308225, 18 h
S. aureus RN450 = assay: In Vitro Anti-Bacterial Activity Assay (MIC), gram positive; format: cell-based; details: for MIC: Staphylococcus aureus, RN450, 18 h
[1] = MIC class, Table 3, read-out: Antibiotic Activity Gram −
[2] = MIC class, Table 3, read-out: Antibiotic Activity Gram +
[3] = gram negative bacteria, read-out: Antibiotic Activity Gram − (MIC)
[4] = gram positive bacteria, read-out: Antibiotic Activity Gram + (MIC)
[5] = read-out: Antibiotic Activity Gram − (MIC)
[6] = read-out: Antibiotic Activity Gram + (MIC)
[7] = MIC class, Table 3 (Continued), read-out: Gram− activity
[8] = MIC class, Table 3 (Continued), read-out: Gram+ activity

Structure (SMILES)	MIC (E. coli mL308 225; [1]) [µg/mL]	MIC (S. aureus RN450; [2]) [µg/mL]	MIC (E. coli mL308 225; [3]) [µg/mL]	MIC (S. aureus RN450; [4]) [µg/mL]	further results
COc1ccc(CNC2CCCCC2)cc1-c1ccc(O)c2c1C[C@H]1C[C@H]3[C@H](N(C)C)C(O)=C(C(N)=O)C(=O)[C@@]3(O)C(O)=C1C2=O [I]	< 4	< 4	–	–	–
CCOC(=O)COC1=C(C(N)=O)C(=O)[C@@]2(O)C(O)=C3C(=O)c4c(O)ccc(I)c4C[C@H]3C[C@H]2[C@@H]1N(C)C [OY]	> 4	< 4	–	–	–
CN(C)c1cc(NC2CC(C)(C)NC(C)(C)C2)c(O)c2c1C[C@H]1C[C@H]3[C@H](N(C)C)C(O)=C(C(N)=O)C(=O)[C@@]3(O)C(O)=C1C2=O	–	–	> 4	> 4	–
CN(C)[C@@H]1C(O)=C(C(N)=O)C(=O)[C@@]2(O)C(O)=C3C(=O)c4c(O)ccc(C#CCCCC#N)c4C[C@H]3C[C@@H]12 [BB]	< 4	< 4	–	–	–
CC(C)NCc1ccc(-c2ccc(O)c3c2C[C@H]2C[C@H]4[C@@H](N(C)C)C(O)=C(C(N)=O)C(=O)[C@@]4(O)C(O)=C2C3=O)o1 [HN]	< 4	< 4	–	–	–
CN(C)c1cc(NCc2ccc(O)c(O)c2)c(O)c2c1C[C@H]1C[C@H]3[C@H](N(C)C)C(O)=C(C(N)=O)C(=O)[C@@]3(O)C(O)=C1C2=O	–	–	> 4	< 4	–
CN(C)c1cc(NC(=O)Oc2ccccc2)c(O)c2c1C[C@H]1C[C@H]3[C@H](N(C)C)C(O)=C(C(N)=O)C(=O)[C@@]3(O)C(O)=C1C2=O [drawing 3360]	–	–	–	–	MIC (E. coli mL308 225; [5]): > 4 µg/mL; MIC (S. aureus RN450; [6]): > 4 µg/mL
CC1CCN(Cc2cc(N(C)C)c3c(c2O)C(=O)C2=C(O)[C@]4(O)C(=O)C(C(N)=O)=C(O)[C@@H](N(C)C)[C@@H]4C[C@@H]2C3)CC1	–	–	< 4	< 4	–
CN(C)[C@@H]1C(O)=C(C(N)=O)C(=O)[C@@]2(O)C(O)=C3C(=O)c4c(O)ccc(CN5CCCCC5)c4C[C@H]3C[C@@H]12 [KJ]	< 4	< 4	–	–	–
CN(C)[C@@H]1C(O)=C(C(N)=O)C(=O)[C@@]2(O)C(O)=C3C(=O)c4c(O)ccc(-c5ccc(NC(=O)OC(C)(C)C)cc5)c4C[C@H]3C[C@@H]12	–	–	< 4	< 4	–
CN(C)c1cc(CNCc2ccccc2)c(O)c2c1C[C@H]1C[C@H]3[C@H](N(C)C)C(O)=C(C(N)=O)C(=O)[C@@]3(O)C(O)=C1C2=O [MW]	< 4	< 4	–	–	–
CCc1cc(CN)c(O)c2c1C[C@H]1C[C@H]3[C@H](N(C)C)C(O)=C(C(N)=O)C(=O)[C@@]3(O)C(O)=C1C2=O [CT]	< 4	> 4	–	–	–
COC(=O)CCc1ccc(O)c2c1C[C@H]1C[C@H]3C(N(C)C)C(O)=C(C(N)=O)C(=O)[C@@]3(O)C(O)=C1C2=O (some centres unmarked) [FC]	> 4	< 4	–	–	–
CNC(=O)Oc1ccc(-c2ccc(O)c3c2C[C@H]2C[C@H]4[C@H](N(C)C)C(O)=C(C(N)=O)C(=O)[C@@]4(O)C(O)=C2C3=O)cc1	–	–	–	–	MIC (E. coli mL308 225; [5]): < 4 µg/mL; MIC (S. aureus RN450; [6]): < 4 µg/mL
CCCOc1cccc2c1C(=O)C1=C(O)[C@]3(O)C(=O)C(C(N)=O)=C(O)[C@@H](N(C)C)[C@@H]3C[C@@H]1C2 [drawing 3586]	–	–	–	–	Antibiotic Activity Gram − (MIC) (E. coli mL308 225; gram negative bacteria): * (compounds with an MIC of greater than 4 μg/ml are indicated with *); Antibiotic Activity Gram + (MIC) (S. aureus RN450; gram positive bacteria): * (compounds with an MIC of greater than 4 μg/ml are indicated with *)
CC(C)CNC(=N)Nc1cc(N(C)C)c2c(c1O)C(=O)C1=C(O)[C@]3(O)C(=O)C(C(N)=O)=C(O)[C@@H](N(C)C)[C@@H]3C[C@@H]1C2 [FB]	> 4	> 4	–	–	–
CCC(NCc1cc(N(C)C)c2c(c1O)C(=O)C1=C(O)[C@]3(O)C(=O)C(C(N)=O)=C(O)C(N(C)C)[C@@H]3C[C@@H]1C2)C(F)(F)F (some centres unmarked) [NT]	> 4	< 4	–	–	–
CN(C)[C@@H]1C(O)=C(C(N)=O)C(=O)[C@@]2(O)C(O)=C3C(=O)c4c(O)ccc(CNC(=O)c5cc(O)ncn5)c4C[C@H]3C[C@@H]12	–	–	> 4	< 4	–
CN(C)[C@@H]1C(O)=C(C(N)=O)C(=O)[C@@]2(O)C(O)=C3C(=O)c4c(O)ccc(-c5ccc(CNC6CC6)o5)c4C[C@H]3C[C@@H]12	–	–	< 4	< 4	–
CN(C)[C@@H]1C(O)=C(C(N)=O)C(=O)[C@@]2(O)C(O)=C3C(=O)c4c(O)ccc(C=CC(N)=O)c4C[C@H]3C[C@@H]12 [BO]	> 4	> 4	–	–	–

Structure (SMILES)	MIC (E. coli mL308 225; [1]) [µg/mL]	MIC (S. aureus RN450; [2]) [µg/mL]	MIC (E. coli mL308 225; [3]) [µg/mL]	MIC (S. aureus RN450; [4]) [µg/mL]	further results
CCc1ccnc(-c2ccc(O)c3c2C[C@H]2C[C@H]4[C@H](N(C)C)C(O)=C(C(N)=O)C(=O)[C@@]4(O)C(O)=C2C3=O)c1 [NZ]	< 4	< 4	–	–	–
COc1cc(-c2ccc(O)c3c2C[C@H]2C[C@H]4[C@H](N(C)C)C(O)=C(C(N)=O)C(=O)[C@@]4(O)C(O)=C2C3=O)cc(OC)c1OC [GE]	> 4	< 4	–	–	–
CC(CF)Nc1ccc(-c2ccc(O)c3c2C[C@H]2C[C@H]4[C@H](N(C)C)C(O)=C(C(N)=O)C(=O)[C@@]4(O)C(O)=C2C3=O)cc1 (some centres unmarked)	–	–	> 4	< 4	–
C#Cc1cc(CNC(=O)N2CCOCC2)c2c(c1O)C(=O)C1=C(O)[C@]3(O)C(=O)C(C(N)=O)=C(O)[C@@H](N(C)C)[C@@H]3C[C@@H]1C2	–	–	> 4	> 4	–
CC1CCN(CC(=O)c2ccc(O)c3c2C[C@H]2C[C@H]4[C@H](N(C)C)C(O)=C(C(N)=O)C(=O)[C@@]4(O)C(O)=C2C3=O)CC1	–	–	> 4	< 4	–
CN(C)[C@@H]1C(O)=C(C(N)=O)C(=O)[C@@]2(O)C(O)=C3C(=O)c4c(O)c(CN)cc(Cl)c4C=C3C[C@@H]12	–	–	> 4	> 4	–
CN(C)c1cc(-c2ccc(Cl)cc2)c(O)c2c1C[C@H]1C[C@H]3[C@H](N(C)C)C(O)=C(C(N)=O)C(=O)[C@@]3(O)C(O)=C1C2=O [AF]	> 4	< 4	–	–	–
COc1ccc(CCc2ccc(O)c3c2C[C@H]2C[C@H]4[C@H](N(C)C)C(O)=C(C(N)=O)C(=O)[C@@]4(O)C(O)=C2C3=O)cc1	–	–	–	–	MIC (E. coli mL308 225; [7]): < 4 µg/mL; MIC (S. aureus RN450; [8]): < 4 µg/mL
CN(C)c1ccc(OCc2ccccc2)c2c1C[C@H]1C[C@H]3[C@H](N(C)C)C(OCc4ccccc4)=C(C(N)=O)C(=O)[C@@]3(O)C(O)=C1C2=O [ON]	> 4	> 4	–	–	–
CC#Cc1ccc(O)c2c1C[C@H]1C[C@H]3[C@H](N(C)C)C(O)=C(C(N)=O)C(=O)[C@@]3(O)C(O)=C1C2=O	–	–	–	–	MIC (E. coli mL308 225; [7]): < 4 µg/mL; MIC (S. aureus RN450; [8]): < 4 µg/mL
CN(C)c1cc(CNC(=O)C(C)(C)C)c(O)c2c1C[C@H]1C[C@H]3[C@H](N(C)C)C(O)=C(C(N)=O)C(=O)[C@@]3(O)C(O)=C1C2=O	–	–	> 4	< 4	–
CCCCN(c1ccc2c(c1O)C(=O)C1=C(O)[C@]3(O)C(=O)C(C(N)=O)=C(O)[C@@H](N(C)C)[C@@H]3C[C@@H]1C2)C1CCN(C)CC1 [JR]	> 4	> 4	–	–	–
CCOCc1cccc(-c2ccc(O)c3c2C[C@H]2C[C@H]4[C@H](N(C)C)C(O)=C(C(N)=O)C(=O)[C@@]4(O)C(O)=C2C3=O)c1	–	–	–	–	MIC (E. coli mL308 225; [7]): < 4 µg/mL; MIC (S. aureus RN450; [8]): < 4 µg/mL
CC1c2cccc(O)c2C(=O)C2=C(O)[C@]3(O)C(=O)C(C(N)=O)=C(O)[C@@H](N(C)C)[C@@H]3[C@@H](OC(=O)C3CCCCC3)[C@@H]21 (some centres unmarked)	–	–	–	–	MIC (E. coli mL308 225; [7]): < 4 µg/mL; MIC (S. aureus RN450; [8]): < 4 µg/mL
CN(C)c1cc(CNc2nc(-c3ccc(F)cc3)co2)c(O)c2c1C[C@H]1C[C@H]3[C@H](N(C)C)C(O)=C(C(N)=O)C(=O)[C@@]3(O)C(O)=C1C2=O	–	–	> 4	> 4	–
CC(C)CNCc1cc(N(C)C)c2c(c1O)C(=O)C1=C(O)[C@]3(O)C(=O)C(C(N)=O)=C(O)[C@@H](N(C)C)[C@@H]3C[C@@H]1C2 [drawing 3469]	–	–	< 4	< 4	–
CN(C)c1cc(-c2ccc(C(=O)O)cc2)c(O)c2c1C[C@H]1C[C@H]3[C@H](N(C)C)C(O)=C(C(N)=O)C(=O)[C@@]3(O)C(O)=C1C2=O	–	–	–	–	MIC (E. coli mL308 225; [7]): < 4 µg/mL; MIC (S. aureus RN450; [8]): < 4 µg/mL
CC(CF)NCc1cc(N(C)C)c2c(c1O)C(=O)C1=C(O)[C@]3(O)C(=O)C(C(N)=O)=C(O)[C@@H](N(C)C)[C@@H]3C[C@@H]1C2 (some centres unmarked)	–	–	–	< 4	MIC (E. coli mL308 225; [5]): > 4 µg/mL
CN(C)[C@@H]1C(O)=C(C(N)=O)C(=O)[C@@]2(O)C(O)=C3C(=O)c4c(O)c(I)cc(CN)c4C[C@H]3C[C@@H]12 [FV]	> 4	> 4	–	–	–
CC(C)NCc1ccc(-c2ccc(O)c3c2C[C@H]2C[C@H]4[C@H](N(C)C)C(O)=C(C(N)=O)C(=O)[C@@]4(O)C(O)=C2C3=O)c2ccccc12 [GB]	< 4	< 4	–	–	–
